Source: ChEMBL document CHEMBL4507291 (2021)

Legend:
[1] = system: Epidermal growth factor receptor (Homo sapiens), P00533 [G719S]
[2] = target: Serine/threonine-protein kinase 16 (Homo sapiens) (UniProt O75716)
[3] = target: Glycogen synthase kinase-3 alpha (Homo sapiens) (UniProt P49840)
[4] = target: Fibroblast growth factor receptor 2 (Homo sapiens) (UniProt P21802)
[5] = target: T1, Dual specificity protein kinase TTK (Homo sapiens) (UniProt P33981)
T1 sequence (whole entry): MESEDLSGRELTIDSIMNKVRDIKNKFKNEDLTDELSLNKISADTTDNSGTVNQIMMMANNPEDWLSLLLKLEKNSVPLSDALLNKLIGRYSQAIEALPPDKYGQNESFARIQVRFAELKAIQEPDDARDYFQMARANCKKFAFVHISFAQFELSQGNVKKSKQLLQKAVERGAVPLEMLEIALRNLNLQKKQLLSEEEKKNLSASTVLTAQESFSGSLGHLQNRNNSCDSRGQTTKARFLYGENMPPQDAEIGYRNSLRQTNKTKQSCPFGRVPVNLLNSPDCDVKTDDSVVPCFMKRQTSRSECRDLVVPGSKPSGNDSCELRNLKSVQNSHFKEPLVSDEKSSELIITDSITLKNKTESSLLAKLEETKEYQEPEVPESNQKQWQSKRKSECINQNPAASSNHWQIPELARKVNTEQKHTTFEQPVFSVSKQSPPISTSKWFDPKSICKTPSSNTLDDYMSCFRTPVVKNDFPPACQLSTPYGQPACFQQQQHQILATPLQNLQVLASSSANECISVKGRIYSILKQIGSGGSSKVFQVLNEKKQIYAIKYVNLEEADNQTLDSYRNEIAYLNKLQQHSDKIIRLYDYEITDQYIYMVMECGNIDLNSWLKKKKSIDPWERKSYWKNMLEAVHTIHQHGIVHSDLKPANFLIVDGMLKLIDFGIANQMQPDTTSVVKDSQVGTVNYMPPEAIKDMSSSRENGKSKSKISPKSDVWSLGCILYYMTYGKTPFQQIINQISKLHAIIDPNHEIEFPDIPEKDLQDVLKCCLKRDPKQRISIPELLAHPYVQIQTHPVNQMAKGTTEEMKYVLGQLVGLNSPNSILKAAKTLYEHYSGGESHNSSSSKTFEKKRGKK

[6] = target: T2, Mitogen-activated protein kinase kinase kinase 5 (Homo sapiens) (UniProt Q99683)
T2 sequence (whole entry): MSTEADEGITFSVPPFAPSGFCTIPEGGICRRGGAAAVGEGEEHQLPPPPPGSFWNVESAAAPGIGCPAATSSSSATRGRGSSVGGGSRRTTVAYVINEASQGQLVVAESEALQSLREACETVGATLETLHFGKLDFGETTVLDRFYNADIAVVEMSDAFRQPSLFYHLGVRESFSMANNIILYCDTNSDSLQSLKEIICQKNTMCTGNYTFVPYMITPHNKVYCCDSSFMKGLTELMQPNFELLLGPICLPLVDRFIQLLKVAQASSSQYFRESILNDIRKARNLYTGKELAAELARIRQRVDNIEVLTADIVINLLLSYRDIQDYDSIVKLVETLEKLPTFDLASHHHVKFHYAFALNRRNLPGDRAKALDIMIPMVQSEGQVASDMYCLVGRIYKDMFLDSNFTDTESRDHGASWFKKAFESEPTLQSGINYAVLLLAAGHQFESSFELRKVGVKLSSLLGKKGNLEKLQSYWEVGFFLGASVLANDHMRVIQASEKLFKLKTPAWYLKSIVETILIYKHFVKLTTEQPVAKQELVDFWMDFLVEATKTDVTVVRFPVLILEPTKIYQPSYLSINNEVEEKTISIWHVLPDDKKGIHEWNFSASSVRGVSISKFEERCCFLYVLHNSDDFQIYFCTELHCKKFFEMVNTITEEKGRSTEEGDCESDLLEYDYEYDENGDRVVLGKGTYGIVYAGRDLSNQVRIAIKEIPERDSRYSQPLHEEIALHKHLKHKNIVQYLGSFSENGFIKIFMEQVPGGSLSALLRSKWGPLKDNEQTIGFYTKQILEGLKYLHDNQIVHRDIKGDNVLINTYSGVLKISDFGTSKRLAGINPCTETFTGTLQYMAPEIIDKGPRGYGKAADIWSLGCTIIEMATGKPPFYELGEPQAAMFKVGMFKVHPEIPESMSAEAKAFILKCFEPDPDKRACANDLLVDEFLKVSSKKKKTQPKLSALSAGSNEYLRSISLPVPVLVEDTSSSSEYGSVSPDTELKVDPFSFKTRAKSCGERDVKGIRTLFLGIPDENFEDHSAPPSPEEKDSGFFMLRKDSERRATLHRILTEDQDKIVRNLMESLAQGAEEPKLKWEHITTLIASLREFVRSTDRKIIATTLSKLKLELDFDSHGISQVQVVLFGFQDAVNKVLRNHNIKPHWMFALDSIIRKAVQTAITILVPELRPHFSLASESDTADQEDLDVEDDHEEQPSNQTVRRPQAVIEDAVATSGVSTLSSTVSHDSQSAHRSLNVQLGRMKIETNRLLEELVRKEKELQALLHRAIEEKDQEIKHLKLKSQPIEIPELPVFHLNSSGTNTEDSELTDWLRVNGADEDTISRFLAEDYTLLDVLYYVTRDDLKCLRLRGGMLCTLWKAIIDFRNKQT

[7] = target: Dual specificity protein kinase CLK4 (Homo sapiens) (UniProt Q9HAZ1)
Chain of Dual specificity protein kinase CLK4 (Homo sapiens) (Q9HAZ1 whole entry, looked up): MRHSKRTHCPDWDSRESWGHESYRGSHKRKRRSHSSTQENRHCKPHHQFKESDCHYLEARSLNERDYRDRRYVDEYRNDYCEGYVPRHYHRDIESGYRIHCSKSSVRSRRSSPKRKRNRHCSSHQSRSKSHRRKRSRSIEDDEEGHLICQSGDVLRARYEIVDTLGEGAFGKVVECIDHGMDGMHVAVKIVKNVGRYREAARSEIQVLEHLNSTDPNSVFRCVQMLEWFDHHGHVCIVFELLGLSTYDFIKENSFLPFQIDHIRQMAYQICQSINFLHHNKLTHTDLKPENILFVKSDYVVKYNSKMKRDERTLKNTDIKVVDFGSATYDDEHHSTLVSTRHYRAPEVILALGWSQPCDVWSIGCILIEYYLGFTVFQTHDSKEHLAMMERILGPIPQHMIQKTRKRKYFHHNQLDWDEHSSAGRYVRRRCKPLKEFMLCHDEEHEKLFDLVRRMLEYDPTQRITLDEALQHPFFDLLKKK

[8] = target: Receptor-interacting serine/threonine-protein kinase 1 (Homo sapiens) (UniProt Q13546)
[9] = target: Sodium-dependent noradrenaline transporter (Homo sapiens, UniProt P23975); conditions: Compound concentration 10.0 uM
[10] = target: Serine/threonine-protein kinase 26 (Homo sapiens) (UniProt Q9P289)
Chain of Serine/threonine-protein kinase 26 (Homo sapiens) (Q9P289 2-416 limits assumed): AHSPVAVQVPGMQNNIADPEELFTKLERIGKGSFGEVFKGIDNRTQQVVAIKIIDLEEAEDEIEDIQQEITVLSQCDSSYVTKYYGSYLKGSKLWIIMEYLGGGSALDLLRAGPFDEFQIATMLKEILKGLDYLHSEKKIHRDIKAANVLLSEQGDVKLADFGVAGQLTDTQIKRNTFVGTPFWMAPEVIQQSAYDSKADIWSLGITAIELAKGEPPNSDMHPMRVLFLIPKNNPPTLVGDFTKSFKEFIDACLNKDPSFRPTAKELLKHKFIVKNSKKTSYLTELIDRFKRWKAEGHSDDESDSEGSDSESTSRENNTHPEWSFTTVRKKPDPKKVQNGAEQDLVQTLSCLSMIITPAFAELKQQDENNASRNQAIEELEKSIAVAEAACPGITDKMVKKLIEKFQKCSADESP

[11] = target: Phosphatidylinositol 4,5-bisphosphate 3-kinase catalytic subunit beta isoform (Homo sapiens) (UniProt P42338)
Chain of Phosphatidylinositol 4,5-bisphosphate 3-kinase catalytic subunit beta isoform (Homo sapiens) (P42338 whole entry, looked up, canonical isoform): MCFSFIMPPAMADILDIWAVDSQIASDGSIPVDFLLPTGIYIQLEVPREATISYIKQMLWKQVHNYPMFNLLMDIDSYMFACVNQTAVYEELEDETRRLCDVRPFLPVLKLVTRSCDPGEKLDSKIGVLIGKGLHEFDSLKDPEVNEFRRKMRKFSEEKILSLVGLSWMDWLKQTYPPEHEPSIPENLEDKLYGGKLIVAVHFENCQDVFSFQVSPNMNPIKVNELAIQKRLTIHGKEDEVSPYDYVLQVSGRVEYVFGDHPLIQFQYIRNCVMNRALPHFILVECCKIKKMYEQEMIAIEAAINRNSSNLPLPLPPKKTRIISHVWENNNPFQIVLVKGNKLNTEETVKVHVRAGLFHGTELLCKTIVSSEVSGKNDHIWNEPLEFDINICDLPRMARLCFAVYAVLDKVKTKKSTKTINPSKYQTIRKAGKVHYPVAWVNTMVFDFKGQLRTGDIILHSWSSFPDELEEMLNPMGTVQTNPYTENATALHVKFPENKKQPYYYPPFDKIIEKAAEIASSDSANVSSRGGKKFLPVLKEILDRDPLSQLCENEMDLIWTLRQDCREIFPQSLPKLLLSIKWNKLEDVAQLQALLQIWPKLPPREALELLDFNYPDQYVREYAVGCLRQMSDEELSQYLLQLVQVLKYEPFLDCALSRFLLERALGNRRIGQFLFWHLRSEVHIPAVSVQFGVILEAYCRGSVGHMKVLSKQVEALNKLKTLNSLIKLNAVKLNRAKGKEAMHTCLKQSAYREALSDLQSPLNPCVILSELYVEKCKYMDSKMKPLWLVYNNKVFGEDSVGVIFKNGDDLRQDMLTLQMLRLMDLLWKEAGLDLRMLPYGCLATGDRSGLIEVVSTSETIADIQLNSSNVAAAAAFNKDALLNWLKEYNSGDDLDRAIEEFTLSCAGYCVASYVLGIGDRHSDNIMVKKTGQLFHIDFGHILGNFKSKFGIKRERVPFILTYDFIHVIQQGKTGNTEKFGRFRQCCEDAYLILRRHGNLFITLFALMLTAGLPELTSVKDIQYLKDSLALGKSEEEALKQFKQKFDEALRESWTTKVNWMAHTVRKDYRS

[12] = target: Dual serine/threonine and tyrosine protein kinase (Homo sapiens) (UniProt Q6XUX3)
Chain of Dual serine/threonine and tyrosine protein kinase (Homo sapiens) (Q6XUX3 whole entry): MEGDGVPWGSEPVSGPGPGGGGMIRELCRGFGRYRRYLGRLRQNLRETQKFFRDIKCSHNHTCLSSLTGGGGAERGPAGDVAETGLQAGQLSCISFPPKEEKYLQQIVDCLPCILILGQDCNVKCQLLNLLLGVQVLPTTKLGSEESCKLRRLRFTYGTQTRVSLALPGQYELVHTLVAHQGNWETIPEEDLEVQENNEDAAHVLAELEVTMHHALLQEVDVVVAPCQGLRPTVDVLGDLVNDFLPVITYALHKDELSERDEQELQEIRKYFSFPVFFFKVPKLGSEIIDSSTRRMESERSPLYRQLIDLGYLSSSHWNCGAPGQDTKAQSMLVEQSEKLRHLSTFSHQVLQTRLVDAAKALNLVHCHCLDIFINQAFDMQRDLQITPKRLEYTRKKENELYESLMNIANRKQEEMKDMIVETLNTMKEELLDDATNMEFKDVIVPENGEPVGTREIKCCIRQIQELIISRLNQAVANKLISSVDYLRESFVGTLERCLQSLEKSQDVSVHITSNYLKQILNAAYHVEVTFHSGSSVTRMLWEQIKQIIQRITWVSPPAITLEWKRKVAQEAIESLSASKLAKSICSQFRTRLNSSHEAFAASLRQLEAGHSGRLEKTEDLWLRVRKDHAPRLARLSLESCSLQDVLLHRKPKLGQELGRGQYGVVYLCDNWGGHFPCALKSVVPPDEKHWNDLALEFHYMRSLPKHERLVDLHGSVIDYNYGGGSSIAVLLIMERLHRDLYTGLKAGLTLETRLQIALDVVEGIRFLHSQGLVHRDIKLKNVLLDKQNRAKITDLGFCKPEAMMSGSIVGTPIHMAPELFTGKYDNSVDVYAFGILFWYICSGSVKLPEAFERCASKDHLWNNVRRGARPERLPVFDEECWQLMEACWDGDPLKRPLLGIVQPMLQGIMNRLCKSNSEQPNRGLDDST

[13] = target: Mitogen-activated protein kinase 3 (Homo sapiens) (UniProt P27361)
Chain of Mitogen-activated protein kinase 3 (Homo sapiens) (P27361 whole entry): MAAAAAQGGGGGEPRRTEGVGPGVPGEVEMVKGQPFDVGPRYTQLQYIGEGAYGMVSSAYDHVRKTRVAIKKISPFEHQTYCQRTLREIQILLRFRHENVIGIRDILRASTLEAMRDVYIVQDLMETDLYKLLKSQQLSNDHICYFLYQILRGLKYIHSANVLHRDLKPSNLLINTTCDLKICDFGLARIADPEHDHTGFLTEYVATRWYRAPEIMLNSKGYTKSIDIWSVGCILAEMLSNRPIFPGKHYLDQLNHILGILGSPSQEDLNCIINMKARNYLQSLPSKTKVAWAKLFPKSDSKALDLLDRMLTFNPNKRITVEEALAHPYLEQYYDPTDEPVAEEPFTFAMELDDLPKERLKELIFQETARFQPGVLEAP

[14] = Compound concentration 1000.0 nM
[15] = Compound concentration 100.0 nM

Chain of Serine/threonine-protein kinase 16 (Homo sapiens) (O75716 whole entry): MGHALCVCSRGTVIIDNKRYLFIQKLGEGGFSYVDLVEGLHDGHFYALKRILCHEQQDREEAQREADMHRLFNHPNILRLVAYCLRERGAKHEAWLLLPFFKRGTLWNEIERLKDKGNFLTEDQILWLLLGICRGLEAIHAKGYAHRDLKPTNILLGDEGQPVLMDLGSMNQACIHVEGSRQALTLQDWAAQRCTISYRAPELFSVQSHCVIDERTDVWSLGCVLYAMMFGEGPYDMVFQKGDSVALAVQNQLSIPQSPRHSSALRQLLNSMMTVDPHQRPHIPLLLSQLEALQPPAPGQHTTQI
Chain of Fibroblast growth factor receptor 2 (Homo sapiens) (P21802 22-821 limits assumed): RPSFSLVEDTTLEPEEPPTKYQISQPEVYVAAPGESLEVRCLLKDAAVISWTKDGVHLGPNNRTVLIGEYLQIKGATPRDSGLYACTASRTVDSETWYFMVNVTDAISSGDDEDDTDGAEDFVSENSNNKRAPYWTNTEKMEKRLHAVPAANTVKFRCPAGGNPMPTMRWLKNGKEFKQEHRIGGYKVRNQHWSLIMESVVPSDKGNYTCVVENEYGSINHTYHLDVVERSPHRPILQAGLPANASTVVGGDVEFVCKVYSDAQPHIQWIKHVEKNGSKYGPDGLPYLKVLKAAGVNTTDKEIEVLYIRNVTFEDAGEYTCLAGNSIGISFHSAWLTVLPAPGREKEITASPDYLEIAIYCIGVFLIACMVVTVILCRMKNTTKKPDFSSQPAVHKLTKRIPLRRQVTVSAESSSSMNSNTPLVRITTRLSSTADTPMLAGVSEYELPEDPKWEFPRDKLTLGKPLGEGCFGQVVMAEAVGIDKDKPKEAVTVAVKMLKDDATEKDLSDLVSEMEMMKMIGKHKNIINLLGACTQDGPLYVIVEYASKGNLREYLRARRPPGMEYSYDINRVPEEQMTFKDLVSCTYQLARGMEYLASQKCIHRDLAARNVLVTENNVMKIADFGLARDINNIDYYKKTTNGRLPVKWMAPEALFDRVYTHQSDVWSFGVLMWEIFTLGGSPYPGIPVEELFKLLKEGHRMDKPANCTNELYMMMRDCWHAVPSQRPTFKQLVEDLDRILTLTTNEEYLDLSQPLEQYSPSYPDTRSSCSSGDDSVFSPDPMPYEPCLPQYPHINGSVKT
Chain of Glycogen synthase kinase-3 alpha (Homo sapiens) (P49840 2-483 limits assumed): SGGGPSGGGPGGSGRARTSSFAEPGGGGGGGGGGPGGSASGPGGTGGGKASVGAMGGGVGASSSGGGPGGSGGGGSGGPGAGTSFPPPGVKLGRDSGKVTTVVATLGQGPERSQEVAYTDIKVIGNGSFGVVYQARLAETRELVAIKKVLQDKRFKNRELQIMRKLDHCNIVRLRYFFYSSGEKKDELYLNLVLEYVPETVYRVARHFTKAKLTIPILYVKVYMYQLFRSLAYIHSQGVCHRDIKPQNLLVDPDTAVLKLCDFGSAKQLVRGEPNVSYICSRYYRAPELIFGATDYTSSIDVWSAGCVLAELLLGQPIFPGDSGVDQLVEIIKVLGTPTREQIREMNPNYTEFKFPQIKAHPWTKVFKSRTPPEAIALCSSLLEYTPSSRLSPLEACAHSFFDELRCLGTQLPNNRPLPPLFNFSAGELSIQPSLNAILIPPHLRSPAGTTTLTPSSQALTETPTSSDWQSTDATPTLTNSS

C[C@@H]1CN(c2cc(-c3nn(C)c4ccc(OC5(C)CC5)cc34)ncn2)C[C@H](C)O1 [MLi-2-NC]
inactive: residual activity [1, 14] 72% | residual activity [2, 14] 100% | residual activity [3, 14] 86% | residual activity [4, 14] 100% | residual activity [5, 14] 100% | residual activity [6, 14] 100% | residual activity [7, 14] 100% | residual activity [8, 14] 98% | inhibition [9] 30.6% | residual activity [10, 14] 74% | residual activity [11, 14] 100% | residual activity [12, 14] 67% | residual activity [13, 14] 100%

C[C@@H]1CN(c2cc(-c3n[nH]c4ccc(OC5(C)CC5)cc34)ncn2)C[C@H](C)O1 [MLi-2]
inactive: residual activity [1, 15] 59% | residual activity [2, 15] 100% | residual activity [3, 15] 100% | residual activity [4, 15] 96% | residual activity [5, 15] 74% | residual activity [6, 15] 88% | residual activity [7, 15] 87% | residual activity [8, 15] 100% | inhibition [9] 7.45% | residual activity [10, 15] 76% | residual activity [11, 15] 59% | residual activity [12, 15] 77% | residual activity [13, 15] 87%
